According to patent US20120219535A1, “CRANIAL NEURAL CREST STEM CELLS AND CULTURE CONDITION THAT SUPPORTS THEIR GROWTH” (University of Southern California, priority 2009, published 2012):
Entries after “also recorded” stand apart in the source; their conditions may differ.

How the values were obtained:
[1] = test system: STAT3 negative cells; details: 80 μM AG490; cited from earlier work
[2] = test system: cells which are independent from the JAK-STAT signal; details: cited from earlier work
[3] = test system: human B-precursor leukemic cell line; details: by inducing apoptosis; cited from earlier work
[4] = test system: primary cultured cranial neural crest cells; experiment: AG490 (Jak inhibitor) treatment of primary cultured cranial neural crest cells, alive cell count; type: cell-based, mouse; details: E8.5 FACS sorted cells
Description: (§1) AG490 (Sigma Chemical Co., St Louis, Mo., USA) was reconstituted in dimethyl sulfoxide (DMSO) and stored at −20° C. A stock concentration was 10 mM. Cranial tissues of Wnt1-Cre;R26R;EGFP mouse at E8.5 were dissociated by 0.025% trypsin and 1 mg/ml collagenase in DPBS. Then, neural crest cells labeled with Wnt1-Cre;R26R;EGFP were sorted by means of FACS and used for Jak inhibitor treatment. D7-1 or primary cultured cranial neural crest cells were seeded to fibronectin coated plate at a density of 20000 or 12700 cell/cm^2 respectively, and incubated for three days in basal medium as described above, added with either control DMSO, 10 μM AG490, or 20 μM AG490. Culture medium was changed daily. Alive cell number was counted on each day for D7-1 and third day for primary cultured cells.
These experiments were done with a long-term cultured craNCSC clone, D7-1, which has been treated with LIF during entire culture process. Therefore, it is possible that D7-1 cells has been poised to LIF and adopted to the JAK-STAT dependent culture condition. To evaluate this, Applicants freshly isolated Wnt1-Cre;R26R;EGFP positive cranial neural crest cells from E8.5 mouse embryos by FACS sorting and treated them with AG490 for three days. If JAK2 activity is dispensable to these primary neural crest, chemical treatment would not cause any apparent effects. […]

[5] = test system: craNCSC clone D7-1; experiment: AG490 (Jak inhibitor) treatment of long-term cultured craNCSC clone D7-1, alive cell count; type: cell-based, mouse; details: counted daily, vs 0.4% DMSO vehicle
Description: as §1
The hypothesis that phosphorylation of STAT3 by JAK kinase is essential for the maintenance of craNCSC was also investigated. JAK inhibitor AG490 was used for this study. AG490 is synthetic PTK inhibitor with anti-JAK2 activity. […] If craNCSC require the JAK-STAT signal for its maintenance, treatment of AG490 will cause overt effects. 10 μM and 20 μM AG490 treatment against D7-1 was performed for three days and alive cell number was counted on each day. […] Dose dependent susceptibility of D7-1 against AG490 was also evident.

In the case of `N#C/C(=C/c1ccc(O)c(O)c1)C(=O)NCc1ccccc1` [AG490], the general toxicity [1] is given as “does not cause general toxicity”, the effect on cells [2] is given as “no obvious effect” and the cell growth [3] is given as “prevents the growth”. For the same molecule, the “cell mortality (alive cell number)” value ([4]; 10 μM AG490, three days) was “High cell mortality”, the “cell mortality (alive cell number)” value ([4]; 20 μM AG490, three days) was “High cell mortality” and the “alive (viable) cell number” value ([5]; 10 μM AG490, three days) was “smaller effect; also recorded: more modest effect”. For the same molecule, the “alive (viable) cell number” value ([5]; 20 μM AG490, three days) was “significant reduction of the viable cells; also recorded: significant depletion of cell survival”.
